Values after ≈ are worked out from the molar mass of the structure shown.

One experiment concerns SNB-7. In words: Growth inhibition of human SNB7 cells after 72 hrs. Type of experiment: functional, cell-based. Conditions: SNB-7, 72 h.
In a further experiment the test system is DLD-1. Kind of experiment: Growth inhibition of human DLD1 cells after 72 hrs. It counts as functional, cell-based. Conditions: DLD-1, 72 h.
For another experiment, the system named is ZR-75-1. Kind of experiment: Growth inhibition of human ZR-75-1 cells after 72 hrs. Type of experiment: functional, cell-based. Conditions: ZR-75-1, 72 h.
The subject of the next experiment is PC-3. Kind of experiment: Growth inhibition of human PC3 cells after 72 hrs. It counts as functional, cell-based. Conditions: PC-3, 72 h.
The subject of the next experiment is CAKI-1. In words: Growth inhibition of human CAKI1 cells after 72 hrs. Conditions: CAKI-1, 72 h. Type of experiment: functional, cell-based.
The next experiment deals with NCI-H23. In words: cells. Conditions: Homo sapiens, NCI-H23, 72 h.
In another experiment the test system is LOX IMVI. In words: cells. Conditions: Homo sapiens, 72 h.

Description for LOX IMVI: Growth inhibition of human LOX IMVI cells after 72 hrs
Description for NCI-H23: Growth inhibition of human NCI-H23 cells after 72 hrs

For orientation: IC50 means the midpoint of a concentration-inhibition curve. A low value points to inhibition by little substance. As for `CN(Cc1cnc2nc(N)nc(N)c2n1)c1ccc(C(=O)N[C@@H](CCC(=O)O)C(=O)O)cc1` [METHOTREXATE], the IC50 in the experiment with SNB-7 was > 60 µg/mL; with DLD-1, > 60 µg/mL; with ZR-75-1, > 60 µg/mL; in the experiment on PC-3 it was 0.027 µg/mL (≈ 0.0594 µM); in the experiment on CAKI-1, > 60 µg/mL; with NCI-H23, 0.29 µg/mL (≈ 0.638 µM). This molecule returned a half-maximal inhibitory concentration (IC50) in the experiment on LOX IMVI of 0.057 µg/mL (≈ 0.125 µM).

Source of the values: ChEMBL document CHEMBL1145424, “Novel boron-containing, nonclassical antifolates: synthesis and preliminary biological and structural evaluation” (J Med Chem, 2007).
